Assay results as given in paper PMC11653257, “Organometallic Half-Sandwich Complexes of 8-Hydroxyquinoline-Derived Mannich Bases with Enhanced Solubility: Targeting Multidrug Resistant Cancer” (Inorganic Chemistry, 2024).
Values after ≈ are worked out from the molar mass of the structure shown.

How the values were obtained:
[1] = Thermodynamic aqueous solubility at pH 7.4; format: physicochemical; settings: 10 mM HEPES buffer, thermodynamic from solid, pH 7.4 (10 mM HEPES), 25.0 °C, read-out: thermodynamic aqueous solubility S7.4
Method: The concentration of the compounds was determined by UV–vis spectrophotometry. For calibration, stock solutions of the compounds were used with known concentrations dissolved in 100% DMSO, 75% DMSO, and 50% (v/v) DMSO/buffered aqueous solutions.

MES-SA = settings: monoculture, PrestoBlue; ref SI3; cited from earlier work
[2] = pKa of the ligands by 1H NMR titration; format: physicochemical; settings: 0.20 M KNO3 with 10% (v/v) D2O, I = 0.20 M KNO3, 25.0 °C, read-out: pKa (OH)
Method: Physico-chemical properties such as aqueous solubility, lipophilicity, and the actual protonation state at a given pH are known to influence the pharmacokinetic behavior of a drug.
Bruker Avance III HD Ascend 500 Plus instrument (Billerica, MA, USA) was used for NMR studies. ^1H NMR spectroscopic measurements were carried out with a WATERGATE water suppression pulse scheme in the presence of 10% (v/v) D2O in most cases. DSS internal standard was added to samples to obtain reference peaks. ^1H NMR titrations were carried out in the presence of 0.20 M KNO3. The computer program HypSpec[64] was used to obtain equilibrium constants.

A431-B1 = test system: A431-B1; design: method as in earlier work; settings: monoculture, ref SI3, cited from earlier work
[3] = H2O/Cl– coligand exchange by UV–vis titration with chloride ions; format: physicochemical; settings: RhCp* complexes titrated at pH 7.4
Method: When the isolated complexes (1–4) are dissolved in water, their chlorido coligand can be replaced by water, or vice versa in the aqua complexes [M(arene)(HL)(H2O)]^2+, the H2O → Cl^– exchange process can take place in the presence of chloride ions. The chloride ion affinity of the complexes was also investigated by UV–vis spectrophotometry. RhCp* and RuCym complexes were titrated with chloride ions at pH 7.4 and 6.0, respectively. For this experiment, pH values were chosen at which the formation of the mixed hydroxido species is negligible. A representative spectrum series for complex (4) is shown in Figure S27, and the calculated conditional exchange constants (logK’ (H2O/Cl^–)) are given in Table 2 and in Figure S23. […] The complexes of the amino acid hybrids HQCl-D-Pro and HQCl-D-hPro have lower logK’ (H2O/Cl^–) constants most likely due to the repulsive effect of the nearby COO^– group.[26]

[4] = Ligand displacement with 2,2′-bipyridine, conditional formation constant; format: physicochemical; settings: pH 7.4; bpy competitor; UV–vis
Text: These pKa (H2O) values are lower than those of the complexes formed with the corresponding amino acid hybrids (HQCl-D-Pro, HQCl-D-hPro, Figure S23). Thus, the predominant complex at pH 7.4 is [M(arene)(HL)(H2O)]^2+ in all cases, in which the bidentate ligand coordinates via the (N,O^–) donor set and the pyridinium or pyrrolidinium nitrogens are protonated just like in the isolated complexes (Chart 3). Based on the unchanged spectra (vide supra), these types of complexes show no dissociation at pH = 2, indicating their high stability and hindering the direct determination of the formation constants. Therefore, a ligand displacement experiment was performed using UV–vis spectrophotometry with 2,2′-bipyridine (bpy) as a competitor to determine conditional formation constants at pH = 7.4 (Figure S25). […] Nevertheless, these values indicate a high stability of the complexes in solution, and <1% of dissociation is estimated at 1 μM concentration at pH = 7.4. The ligand displacement measurement could not be applied to the RuCym complexes due to the release of the p-cymene ring followed by the formation of the mixed ligand complex with bpy and oxidation of the metal center (Figure S26), similarly to analogue complexes.[14],[26],[27]

[5] = pKa of in situ prepared complexes by pH-potentiometry; format: physicochemical; settings: I = 0.20 M KNO3
Text: The results, shown in Table 2, indicate good agreement between the data obtained by the different methods. It should be noted that these processes show overlap in all cases, and therefore, the assignment of the pKa values to the given moieties cannot be made reliably. However, by comparing the spectral changes with those observed for HQ and other simple derivatives,[25] it can be concluded that the lower pKa likely belongs to the deprotonation of the aqua coligand.
The pH-potentiometric measurements were carried out at 25.0 ± 0.1 °C in water in the pH range between 2.0 and 11.5 and at a constant ionic strength of 0.20 M KNO3. The titrations were performed in a carbonate-free KOH solution (0.20 M). The exact concentrations of the HNO3 and KOH solutions were determined by pH-potentiometric titrations. An Orion 710A pH-meter equipped with a Metrohm combined electrode (type 6.0234.100) and a Metrohm 665 Dosimat buret were used for this purpose. […] The average water ionization constant, pKw, was determined as 13.76 ± 0.01, which is in good agreement with the literature data.[67] The initial volume of the samples was 10.0 mL. […] Samples were degassed by bubbling purified argon through them for about 10 min prior to the measurements, and the inert gas was also passed over the solutions during the titrations. The computer program Hyperquad2013[64] was utilized to establish the stoichiometry of the species and to calculate the equilibrium constants.

Molecule | solubility thermodynamic [1] [µM] | IC50 (MES-SA) [nM] | pKa [2] | IC50 (A431-B1; 72 h, PrestoBlue) [nM] | SR (A431 / A431-B1) (A431-B1) | logK’ (H2O/Cl–) [3] | logK’ [M(arene)L]7.4 conditional formation constant [4] | pKa (H2O) [5] | pKa (Npyr/pipH+) [5]
Oc1c(CN2CCCCC2)cc(Cl)c2cccnc12 [HQCl-pip, 5-chloro-7-(piperidin-1-ylmethyl)quinolin-8-ol] | 254 ± 3 (≈ 70.3 µg/mL) | 2490 ± 390 | 7.43 ± 0.02 | 1690 ± 270 | 3.96 |  |  |  | 
[RhCp*(HQCl-Pip)Cl]Cl [(3)] |  |  |  |  |  | 2.21 ± 0.03 | 11.89 ± 0.03 | 9.39 ± 0.07 | 10.41 ± 0.10
